For one test, the system named is activated B lymphocytes. As to the kind of experiment: lipopolysaccharide stimulation, mouse lymphocyte in vitro activation. In kind it is cell-based.
A further test relates to activated T lymphocytes. As to the kind of experiment: mixed-lymphocyte reaction (MLR), mouse lymphocyte in vitro activation. In kind it is cell-based.
A further test relates to mouse ankles. As to the kind of experiment: total bone volume by microcomputed tomography (μCT) of mouse ankles. In kind it is in vivo. The following applies: 1.8-mm section of ankle, resolution 18 μm, FIG. 3. On the procedure:
Still also, total bone volumes were measured by microcomputed tomography (μCT) for a 1.8-mm tall section of mouse ankles from the base of the tibia to the tarsal/metatarsal joints at a resolution of 18 μm.

The subject of test [1] is KLH antigen-specific T cells. In words: KLH immunization of mice, ex vivo restimulation of T cells. In kind it is in vivo, mouse. From the text:
Mice were immunized with keyhole limpet hemocyanin (KLH) and treated with EXAMPLE A or vehicle control.

Test [2] relates to DBA/1J (H-2q) mice immunized with collagen. In words: mouse model of arthritis (collagen immunization, zymosan boost). In kind it is in vivo. The conditions noted are these: EXAMPLE A 50 mg/kg per day, dexamethasone 1 mg/kg per day, 3 weeks, p<0.5 versus vehicle control. As for the experimental part:
Also, a standard mouse model of arthritis using DBA/1J (H-2q) mice immunized with collagen and boosted with zymosan 21 days later was used to induce disease. The mice were than treated with EXAMPLE A (50 mg/kg per day), vehicle (with no drug) and dexamethasone (1 mg/kg per day) at the first clinical sign of disease. The mice were then evaluated for mean arthritic score (MAS) and paw swelling for 3 weeks after treatment began.

SMILES strings stand for the structures. “Also recorded” adds a separate entry of the source.

Take `CN(C)CC[C@H](CSc1ccccc1)Nc1ccc(S(=O)(=O)NC(=O)c2ccc(N3CCN(Cc4ccccc4-c4ccc(Cl)cc4)CC3)cc2)cc1[N+](=O)[O-]` [EXAMPLE A, N-(4-(4-((4′-chloro(1,1′-biphenyl)-2-yl)methyl)piperazin-1-yl)benzoyl)-4-(((1R)-3-(dimethylamino)-1-((phenylsulfanyl)methyl)propyl)amino)-3-nitrobenzenesulfonamide]: the “proliferation of activated B lymphocytes upon lipopolysaccharide stimulation” value in the test on activated B lymphocytes is “inhibited in a concentration-dependent manner”. For the same compound, the “proliferation of activated T lymphocytes in a mixed-lymphocyte reaction (MLR)” value in the test on activated T lymphocytes is recorded as “inhibited in a concentration-dependent manner”. Also, the mouse bone volume result with mouse ankles is reported as “increase in mouse bone volume”. Also, the “responsiveness of T cells spared after treatment” value in test [1] (concavalin A stimulation) is given as “responsive to concavalin A”. The “proliferation of KLH antigen-specific T cells on restimulation ex vivo” value in test [1] (mice immunized with KLH and treated, versus vehicle control) was “significant inhibition of proliferation”. In addition, the paw swelling result in test [2] (FIG. 1) was “inhibition of arthritis; also recorded: reduction in mouse paw swelling”. In test [2] (FIG. 2), the “arthritis as assessed by MAS (mean arthritic score)” value is recorded as “inhibition of arthritis”.

Values taken from patent publication US20160101109A1, “METHOD OF TREATING ARTHRITIS” (AbbVie Inc., priority 2007, published 2016).
